Experimental data as given in patent US9896441B2 (Lycera Corporation, priority 2014, dated 2018).

Legend:
Gal4-RORγ-LBD = molecular target: T1, Gal4-RORγ-LBD (Homo sapiens, UniProt P51449); experiment: Gal4-RORγ Luciferase Reporter Assay in HEK-293T Cells; format: cell-based; conditions: HEK-293 cells, luciferase reporter, with ursolic acid
T1 construct: expressed in transfected cells
T1 sequence (P51449 269-508 limits assumed): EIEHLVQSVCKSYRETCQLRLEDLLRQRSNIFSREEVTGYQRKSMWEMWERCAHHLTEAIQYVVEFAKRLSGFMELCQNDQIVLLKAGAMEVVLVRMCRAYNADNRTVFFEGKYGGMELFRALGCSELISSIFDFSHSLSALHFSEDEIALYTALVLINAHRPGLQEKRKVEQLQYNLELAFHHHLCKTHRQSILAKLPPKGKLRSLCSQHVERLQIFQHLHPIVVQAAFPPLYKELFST
Procedure: (§1) Assay procedures and results are described below.
In the following protocol, HEK-293 cells were transfected with a construct comprising the Gal4 DNA binding domain fused to the ligand binding domain of RORγ (Gal4-RORγ-LBD) in a pcDNA3.1neo plasmid, and also with a reporter construct comprising pGL4.31 Gal4-luciferase (Promega). Control cells were prepared similarly using empty pcDNA3.1neo and pGL4.31 vectors.
Trans-IT reagent (Mirus, 60 μL) at room temperature was added drop wise to OptiMEM (Invitrogen, 1.5 ml). This reagent mixture was mixed by inversion then incubated for 5 to 30 minutes at room temperature. It then was added to a solution of both expression vectors (5 μg each), mixed, and incubated at room temperature for about 20 minutes. HEK-293 cells were harvested from incubation flasks by removing the media, treating with TrypLE Express (Invitrogen), and incubating until the cells detached from the bottom of the flask (approximately 2-5 minutes). 10 Million cells were collected by centrifugation and re-suspended in 10 mL of Dulbecco's Modified Eagle Medium, High Glucose (DMEM, Invitrogen) containing 10% Fetal Bovine Serum and 100 IU each of penicillin and streptomycin. The re-suspended cells and the transfection mixture were added to a T75 flask, mixed and incubated overnight at 37° C. and 5% CO2.
The cells were harvested as described above, counted, and centrifuged to obtain the desired number of cells, then re-suspended in complete growth media at 0.75×10^6 cells/mL. The RORγ antagonist, ursolic acid, was added to the cells at a final concentration of […]. Cells were plated at 20 µL of cell suspension/well (10,000-15,000 cells/well) in white tissue culture treated 384 well plates. Test compounds were dissolved at 10 mM in DMSO then diluted into complete growth medium to 5× the final intended test concentration. These drug stock solutions, 5 µL/well were added to the tissue culture plate. The final DMSO concentration was 0.2%. The plates were briefly centrifuged then incubated overnight at 37° C. and 5% CO2. To conduct the assay, the tissue culture plates were allowed to equilibrate to room temperature and One-Glo luciferase reagent (Promega, 25 µL/well) was added. The plates were briefly centrifuged then incubated at room temperature for 10 minutes. The luciferase intensity was read on an Envision plate reader (Perkin Elmer). […] The luciferase signal in the absence of ursolic acid or test compound is defined at 100. The Max Response is the upper plateau in the signal as determined by line-fit using a 4-parameter logistic model in PRISM (GraphPad).

RORγ-LBD = molecular target: T2, RORγ-LBD (Homo sapiens, UniProt P51449); experiment: RORγ-Ligand Binding Domain (LBD) TR-FRET Assay; format: biochemical; conditions: for TR-FRET Assay Max Response: maximum response;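 on TR-FRET Assay Max Response: 665/615 nm signal ratio set to 100 without ursolic acid or test compound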
T2 construct: made in house; host or cells: SF9 cells (baculovirus); used as diluted lysate
T2 sequence (P51449 269-508 limits assumed): T1 sequence (P51449 269-508 limits assumed)
Procedure: as §1
HIS-tagged RORγ-LBD protein was expressed in SF9 cells using a baculovirus expression system. The lysate was diluted in assay buffer (50 mM Tris pH 7.0, 50 mM KCl, 1 mM EDTA, 0.1 mM DTT, 0.01% BSA) to obtain RORγ-LBD final concentration of ˜3 nM in a 384-well assay plate (need to titrate for each batch of protein).
A stock of biotinylated-LXXLL peptide from coactivator SRC1 (Biotin-[…]) was prepared in assay buffer and added to each well (200 nM final concentration). […] RORγ antagonist ursolic acid was also included at a final concentration of 2 μM. Compounds were diluted in DMSO and further diluted in assay buffer with a final DMSO concentration at 1%.

[1] = with 2 μM ursolic acid (RORγ antagonist), highest test concentration 10 μM

Compound	EC50 (Gal4-RORγ-LBD)	EC50 (RORγ-LBD; RORγ-LBD TR-FRET assay)	TR-FRET Assay Max Response (RORγ-LBD; RORγ-LBD TR-FRET assay)	further results
CC/C(=C\c1ccc2c(c1)N(S(=O)(=O)c1cccc(C(F)(F)F)c1)C[C@H](CCC(=O)O)O2)c1ccccc1Cl [Example 36A, (S,E)-3-(6-(2-(2-chlorophenyl)but-1-en-1-yl)-4-((3-(trifluoromethyl)-phenyl)sulfonyl)-3,4-dihydro-2H-benzo[b][1,4]oxazin-2-yl)propanoic acid]	< 500 nM	–	–	–
CC/C(=C\c1ccc2c(c1)N(S(=O)(=O)c1cccc(C(F)(F)F)c1)C[C@H](CCC(=O)OC)O2)c1ccccc1 [Example 36B, methyl (S,E)-3-(6-(2-phenylbut-1-en-1-yl)-4-((3-(trifluoromethyl)-phenyl)sulfonyl)-3,4-dihydro-2H-benzo[b][1,4]oxazin-2-yl)propanoate]	> 10000 nM	–	–	–
CCOc1nn2c(c1S(=O)(=O)N1C[C@H](CCC(=O)OC)Oc3ccc(/C=C(\C)c4c(F)cccc4Cl)cc31)CCCC2 [Example 65, Methyl (S,E)-3-(6-(2-(2-chloro-6-fluorophenyl)prop-1-en-1-yl)-4-((2-ethoxy-4,5,6,7-tetrahydropyrazolo[1,5-a]pyridin-3-yl)sulfonyl)-3,4-dihydro-2H-benzo[b][1,4]oxazin-2-yl)propanoate]	500 to 5000 nM	–	–	–
CCOc1nn2c(c1S(=O)(=O)N1C[C@H](CCC(=O)O)Oc3ccc(/C=C(\C)c4c(F)cccc4Cl)cc31)CCCC2 [Example 66, (S,E)-3-(6-(2-(2-Chloro-6-fluorophenyl)prop-1-en-1-yl)-4-((2-ethoxy-4,5,6,7-tetrahydropyrazolo[1,5-a]pyridin-3-yl)sulfonyl)-3,4-dihydro-2H-benzo[b][1,4]oxazin-2-yl)propanoic acid]	< 500 nM	–	–	–
CC(=O)N[C@@H]1Cc2ccc(/C=C(\C)c3c(F)cccc3Cl)cc2N(S(=O)(=O)c2cccc(C(F)(F)F)c2)[C@@H]1C [Example 148, N-((2R,3R)-7-((E)-2-(2-Chloro-6-fluorophenyl)prop-1-en-1-yl)-2-methyl-1-((3-(trifluoromethyl)phenyl)sulfonyl)-1,2,3,4-tetrahydroquinolin-3-yl)acetamide]	–	< 500 nM	** (a value in the range of greater than 90 to 150)	–
C/C(=C\c1ccc2c(c1)C[C@@H](C(=O)O)[C@@H](C)N2S(=O)(=O)c1cccc(C(F)(F)F)c1)c1c(F)cccc1Cl [Example 149, (2R,3R)-6-((E)-2-(2-Chloro-6-fluorophenyl)prop-1-en-1-yl)-2-methyl-1-((3-(trifluoromethyl)phenyl)sulfonyl)-1,2,3,4-tetrahydroquinoline-3-carboxylic acid]	–	> 10000 nM	–	–
C/C(=C\c1ccc2c(c1)CC(CC(=O)O)CN2S(=O)(=O)c1cccc(C(F)(F)F)c1)c1c(F)cccc1Cl (stereo not shown) [Example 150, (E)-2-(6-(2-(2-Chloro-6-fluorophenyl)prop-1-en-1-yl)-1-((3-(trifluoromethyl)phenyl)sulfonyl)-1,2,3,4-tetrahydroquinolin-3-yl)acetic acid]	–	> 10000 nM	–	–
COc1cc(S(=O)(=O)N2c3cc(OCc4c(F)cccc4Cl)ccc3C[C@@H](CO)[C@H]2C)ccc1F [Example 151, ((2R,3R)-7-((2-Chloro-6-fluorobenzyl)oxy)-1-((4-fluoro-3-methoxyphenyl)sulfonyl)-2-methyl-1,2,3,4-tetrahydroquinolin-3-yl)methanol]	–	< 500 nM	** (a value in the range of greater than 90 to 150)	–
CCOC(=O)C(C)(C)CC1CC(S(=O)(=O)c2ccc(F)c(OC)c2)c2cc(OCc3c(F)cccc3Cl)ccc2O1 (stereo not shown) [Example 185, Ethyl 3-(6-((2-chloro-6-fluorobenzyl)oxy)-4-((4-fluoro-3-methoxyphenyl)sulfonyl)chroman-2-yl)-2,2-dimethylpropanoate]	–	< 500 nM	** (a value in the range of greater than 90 to 150)	–
C/C(=C\c1ccc2c(c1)N(S(=O)(=O)c1cccc(C(F)(F)F)c1)C[C@H](CCCC(=O)O)O2)c1c(F)cccc1Cl [Example 195G, (S,E)-4-(6-(2-(2-chloro-6-fluorophenyl)prop-1-en-1-yl)-4-((3-(trifluoromethyl)phenyl)-sulfonyl)-3,4-dihydro-2H-benzo[b][1,4]oxazin-2-yl)butanoic acid]	–	–	–	EC50 (RORγ-LBD; [1]): < 500 nM
COC(=O)CCC[C@H]1CN(S(=O)(=O)c2cccc(C(F)(F)F)c2)c2cc(/C=C(\C)c3c(F)cccc3Cl)ccc2O1 [Example 195H, methyl (S,E)-4-(6-(2-(2-chloro-6-fluorophenyl)prop-1-en-1-yl)-4-((3-(trifluoromethyl)phenyl)-sulfonyl)-3,4-dihydro-2H-benzo[b][1,4]oxazin-2-yl)butanoate]	–	–	–	EC50 (RORγ-LBD; [1]): < 500 nM
CCOC(=O)C1Cc2ccc(OCc3c(F)cccc3Cl)cc2N(S(=O)(=O)c2cn(CC)nc2Cl)C1 (stereo not shown) [drawing 1599]	–	–	–	EC50 (RORγ-LBD; [1]): < 500 nM
Cc1nn(C(F)F)cc1S(=O)(=O)N1CC(CO)Cc2ccc(OCc3c(F)cccc3Cl)cc21 (stereo not shown) [drawing 1601]	–	–	–	EC50 (RORγ-LBD; [1]): < 500 nM

More lines, main results first:

EC50 (Gal4-RORγ-LBD)	EC50 (RORγ-LBD; RORγ-LBD TR-FRET assay)	Compound	TR-FRET Assay Max Response (RORγ-LBD; RORγ-LBD TR-FRET assay)	further results
500 to 5000 nM	–	O=C(O)CC[C@H]1CN(S(=O)(=O)c2cccc(C(F)(F)F)c2)c2cc(/C=C3\CCc4ccccc43)ccc2O1 [Example 38C, (S,E)-3-(6-((2,3-dihydro-1H-inden-1-ylidene)methyl)-4-((3-(trifluoromethyl)phenyl)sulfonyl)-3,4-dihydro-2H-benzo[b][1,4]-oxazin-2-yl)propanoic acid]	–	–
< 500 nM	–	C/C(=C\c1ccc2c(c1)N(S(=O)(=O)c1cccc(C(F)(F)F)c1)C[C@H](CCC(=O)O)O2)c1c(Cl)cccc1Cl [Example 86AE, (S,E)-3-(6-(2-(2,6-dichlorophenyl)prop-1-en-1-yl)-4-((3-(trifluoromethyl)phenyl)-sulfonyl)-3,4-dihydro-2H-benzo[b][1,4]oxazin-2-yl)propanoic acid]	–	–
< 500 nM	–	COC(=O)CC[C@H]1CN(S(=O)(=O)c2cccc(C(F)(F)F)c2)c2cc(/C=C(\C)c3ccccc3OC)ccc2O1 [Example 86AJ, (S,E)-methyl 3-(6-(2-(2-methoxyphenyl)prop-1-en-1-yl)-4-((3-(trifluoromethyl)phenyl)sulfonyl)-3,4-dihydro-2H-benzo[b][1,4]-oxazin-2-yl)propanoate]	–	–
–	< 500 nM	COC(=O)C(C)(C)C[C@@H]1Cc2ccc(/C=C(\C)c3c(F)cccc3Cl)cc2N(S(=O)(=O)c2ccc(F)c(OC)c2)C1 [Example 154B, methyl (S,E)-3-(7-(2-(2-chloro-6-fluorophenyl)prop-1-en-1-yl)-1-((4-fluoro-3-methoxyphenyl)sulfonyl)-1,2,3,4-tetrahydroquinolin-3-yl)-2,2-dimethylpropanoate]	** (a value in the range of greater than 90 to 150)	–
–	< 500 nM	CCOC(=O)C(C)(C)CC1CC(S(=O)(=O)c2cccc(C(F)(F)F)c2)c2cc(OCc3c(F)cccc3Cl)ccc2O1 (stereo not shown) [Example 186D, ethyl 3-(6-((2-chloro-6-fluorobenzyl)oxy)-4-((3-(trifluoromethyl)phenyl)-sulfonyl)chroman-2-yl)-2,2-dimethylpropanoate]	*** (a value in the range of greater than 150 to 200)	–
–	< 500 nM	COc1cc(S(=O)(=O)C2CC(CC(C)(C)C(=O)O)Oc3ccc(/C=C(\C)c4c(F)cccc4Cl)cc32)ccc1F (stereo not shown) [Example 186K, (E)-3-(6-(2-(2-chloro-6-fluorophenyl)prop-1-en-1-yl)-4-((4-fluoro-3-methoxyphenyl)-sulfonyl)chroman-2-yl)-2,2-dimethylpropanoic acid]	*** (a value in the range of greater than 150 to 200)	–
